Like-named read-outs stand apart in the source and are kept apart here.
What was measured:
TOV21G (NA) = test: SRB proliferation assay, TOV21G (non-amplified control); format: cell-based; details: 5-day incubation, control not amplified (NA)
Excerpt: (§1) All cell lines were obtained from ATCC except KPL1 which was obtained from Leibniz Institute DSMZ-German Collection of Microorganisms and Cell Cultures, and SMOV2 which was obtained from Dr. Hiroaki Itamochi (Tottori University School of Medicine, Yonago, Japan; see also: ‘Establishment and characterization of human ovarian clear cell adenocarcinoma cell line (SMOV-2), and its cytotoxity by anticancer agents’, Yonamine K at al., Hum Cell., 1999, 12(3), 139-48; and ‘PPM1D Is a Potential Therapeutic Target in Ovarian Clear Cell Carcinoma’, David S. P. Tan et al., Clin Cancer Res, 2009, 15, 2269).
(§2) Representative compounds were assessed in a sulforhodamine B (SRB) proliferation assay in the cell lines shown in the Tables below, according to the following general procedure:
(§3) Cells were seeded in a 96 well plate at a number optimized for each cell line as known in the art; for example as described in Viachai et al, Nature Protocols, 2006, 1 1112-1116. Two fold dilutions of the compounds to be tested were made in culture medium so that, when diluted 5×, the final concentration in the wells was from 50 μM to 0.000191 μM (19 concentrations). A day after seeding the cells in 96 well plates, 25 μl of the compound diluted in the culture medium was added to 100 μl of the cells and incubated at 37° C. and 5% CO2 for 3 or 5 more days as required. After this time, cells were fixed by adding 10% ice cold TCA (in H2O) to 3% final concentration in the wells and by incubating at 4° C. for at least 2 h. Plates were washed 4 times in H2O and allowed to dry in the air. Added 100 μl of 0.057% SRB solution to the dried plates and incubated at room temperature for at least 30 min. Removed SRB solution from the plates and washed four times with 1% acetic acid. Plates were left overnight to dry in the air followed by addition of 100 μl of 10 mM Tris pH 10.5 to each well of the dried plates and incubation on a shaker for 5 min to solubilize the SRB. Optical density was measured at wave length of 490 nm using a plate reader and analysis performed to measure the GI50 using GraphPad PRISM.

SMOV2 (A) = test: SRB proliferation assay, SMOV2 (PPM1D amplified); format: cell-based; details: Homo sapiens, SMOV2, PP1MD amplified cell line (A)
Excerpt: as §1, §2, §3

[1] = 72 h, 3-day incubation, read-out: GI50 3-day SMOV2 (A) SRB
[2] = 120 h, 5-day incubation, read-out: GI50 5-day SMOV2 (A) SRB

SMILES	GI50 (TOV21G (NA); Homo sapiens, 120 h) [µM]	GI50 (SMOV2 (A); [1]) [µM]	GI50 (SMOV2 (A); [2]) [µM]	GI50 (TOV21G (NA)) [µM]
O=c1[nH]c2ccc(-c3csc(-c4ccc(F)cc4)n3)cc2o1 [Compound 1, 6-(2-(4-fluorophenyl)thiazol-4-yl)benzo[d]oxazol-2(3H)-one]	> 10	0.009	0.0011	
Cc1cc(F)ccc1-c1nc(-c2ccc3[nH]c(=O)oc3c2)cs1 [Compound 2, 6-(2-(4-fluoro-2-methylphenyl)thiazol-4-yl)benzo[d]oxazol-2(3H)-one]	> 10	0.0016	0.0005	
Cc1cc(F)ccc1-c1nc(-c2ccc3c(c2)CC(=O)N3)cs1 [Compound 3, 5-(2-(4-fluoro-2-methylphenyl)thiazol-4-yl)indolin-2-one]	> 10	0.0012	0.0005	
Cc1cc(F)ccc1-c1nc(-c2ccc3[nH]c(=O)[nH]c3c2)cs1 [Compound 4, 5-(2-(4-fluoro-2-methylphenyl)thiazol-4-yl)-1H-benzo[d]imidazol-2(3H)-one]	> 10	0.0002	0.0001	
CCc1cc(F)ccc1-c1nc(-c2ccc3[nH]c(=O)oc3c2)cs1 [Compound 5, 6-(2-(2-ethyl-4-fluorophenyl)thiazol-4-yl)benzo[d]oxazol-2(3H)-one]	> 10	0.013	0.0097	
O=c1[nH]c2ccc(-c3csc(-c4ccc(F)cc4C4CC4)n3)cc2o1 [Compound 6, 6-(2-(2-cyclopropyl-4-fluorophenyl)thiazol-4-yl)benzo[d]oxazol-2(3H)-one]		0.2		
C=CCc1cc(F)ccc1-c1nc(-c2ccc3[nH]c(=O)oc3c2)cs1 [Compound 7, 6-(2-(2-allyl-4-fluorophenyl)thiazol-4-yl)benzo[d]oxazol-2(3H)-one]		0.077		
O=c1[nH]c2ccc(-c3csc(-c4ccc(F)cc4CO)n3)cc2o1 [Compound 8, 6-(2-(4-fluoro-2-(hydroxymethyl)phenyl)thiazol-4-yl)benzo[d]oxazol-2(3H)-one]	9.2	0.023	0.0001	
O=c1[nH]c2ccc(-c3csc(-c4ccc(F)cc4CCO)n3)cc2o1 [Compound 9, 6-(2-(4-fluoro-2-(2-hydroxyethyl)phenyl)thiazol-4-yl)benzo[d]oxazol-2(3H)-one]	> 10	0.007	0.0006	
O=c1[nH]c2ccc(-c3csc(-c4ccc(F)cc4COCc4ccccc4)n3)cc2o1 [Compound 10, 6-(2-(2-((benzyloxy)methyl)-4-fluorophenyl)thiazol-4-yl)benzo[d]oxazol-2(3H)-one]		0.3		
O=c1[nH]c2ccc(-c3csc(-c4ccc(F)cc4F)n3)cc2o1 [Compound 11, 6-(2-(2,4-difluorophenyl)thiazol-4-yl)benzo[d]oxazol-2(3H)-one]	> 10	0.007	0.00075	
O=c1[nH]c2ccc(-c3csc(-c4ccc(F)cc4CF)n3)cc2o1 [Compound 12, 6-(2-(4-fluoro-2-(fluoromethyl)phenyl)thiazol-4-yl)benzo[d]oxazol-2(3H)-one]	5.2	0.002	0.0003	
CNCc1cc(F)ccc1-c1nc(-c2ccc3[nH]c(=O)oc3c2)cs1 [Compound 13, 6-(2-(4-fluoro-2-((methylamino)methyl)phenyl)thiazol-4-yl)benzo[d]oxazol-2(3H)-one]	1.6	0.032	0.006	
CN(C)Cc1cc(F)ccc1-c1nc(-c2ccc3[nH]c(=O)oc3c2)cs1 [Compound 14, 6-(2-(2-((dimethylamino)methyl)-4-fluorophenyl)thiazol-4-yl)benzo[d]oxazol-2(3H)-one]	1.6	0.01	0.002	
O=c1[nH]c2ccc(-c3csc(-c4ccc(F)cc4CN4CCOCC4)n3)cc2o1 [Compound 15, 6-(2-(4-fluoro-2-(morpholinomethyl)phenyl)thiazol-4-yl)benzo[d]oxazol-2(3H)-one]		0.52		
CN(C)CCc1cc(F)ccc1-c1nc(-c2ccc3[nH]c(=O)oc3c2)cs1 [Compound 16, 6-(2-(2-(2-(dimethylamino)ethyl)-4-fluorophenyl)thiazol-4-yl)benzo[d]oxazol-2(3H)-one]	9.2	0.04	0.006	

SMILES	GI50 (TOV21G (NA); Homo sapiens, 120 h) [µM]	GI50 (SMOV2 (A); [1]) [µM]	GI50 (SMOV2 (A); [2]) [µM]	GI50 (TOV21G (NA)) [µM]
COCCOCc1cc(F)ccc1-c1nc(-c2ccc3[nH]c(=O)oc3c2)cs1 [Compound 17, 6-(2-(4-fluoro-2-((2-methoxyethoxy)methyl)phenyl)thiazol-4-yl)benzo[d]oxazol-2(3H)-one]	9.4	0.0012	0.0001	
O=c1[nH]c2ccc(-c3csc(-c4ccc(F)cc4COCCO)n3)cc2o1 [Compound 18, 6-(2-(4-fluoro-2-((2-hydroxyethoxy)methyl)phenyl)thiazol-4-yl)benzo[d]oxazol-2(3H)-one]	9.5	0.0017	0.0009	
NCCOCc1cc(F)ccc1-c1nc(-c2ccc3[nH]c(=O)oc3c2)cs1 [Compound 19, 6-(2-(2-((2-aminoethoxy)methyl)-4-fluorophenyl)thiazol-4-yl)benzo[d]oxazol-2(3H)-one]	1.2	0.0014	0.005	1.7
O=c1[nH]c2ccc(-c3csc(-c4ccc(F)cc4COCCN4CCCC4)n3)cc2o1 [Compound 20, 6-(2-(4-fluoro-2-((2-(pyrrolidin-1-yl)ethoxy)methyl)phenyl)thiazol-4-yl)benzo[d]oxazol-2(3H)-one]	1.5	0.013	0.011	
Cc1cc(F)ccc1-c1nc(-c2ccc3[nH]c(=O)n(CCN(C)C)c3c2)cs1 [Compound 21, 1-(2-(dimethylamino)ethyl)-6-(2-(4-fluoro-2-methylphenyl)thiazol-4-yl)-1H-benzo[d]imidazol-2(3H)-one]	7.2	0.008	0.0001	
CCc1cc(F)ccc1-c1nc(-c2ccc3[nH]c(=O)[nH]c3c2)cs1 [Compound 22, 5-(2-(2-ethyl-4-fluorophenyl)thiazol-4-yl)-1H-benzo[d]imidazol-2(3H)-one]	0.66	0.00038	0.0002	
Cc1cc(-c2nc(-c3ccc4[nH]c(=O)oc4c3)cs2)ccc1F [Compound 23, 6-(2-(4-fluoro-3-methylphenyl)thiazol-4-yl)benzo[d]oxazol-2(3H)-one]		0.25		
O=c1[nH]c2ccc(-c3csc(-c4ccc(F)c(F)c4)n3)cc2o1 [Compound 24, 6-(2-(3,4-difluorophenyl)thiazol-4-yl)benzo[d]oxazol-2(3H)-one]		0.29		
Cc1cc(F)cc(C)c1-c1nc(-c2ccc3[nH]c(=O)oc3c2)cs1 [Compound 25, 6-(2-(4-fluoro-2,6-dimethylphenyl)thiazol-4-yl)benzo[d]oxazol-2(3H)-one]		0.5		
Cc1c(F)ccc(-c2nc(-c3ccc4[nH]c(=O)oc4c3)cs2)c1F [Compound 26, 6-(2-(2,4-difluoro-3-methylphenyl)thiazol-4-yl)benzo[d]oxazol-2(3H)-one]		> 10		
Cc1c(-c2nc(-c3ccc4[nH]c(=O)oc4c3)cs2)ccc(F)c1F [Compound 27, 6-(2-(3,4-difluoro-2-methylphenyl)thiazol-4-yl)benzo[d]oxazol-2(3H)-one]	> 10	0.0012	0.0002	
O=C1Cc2cc(-c3csc(-c4ccc(F)cc4)n3)c(Cl)cc2N1 [Compound 28, 6-chloro-5-(2-(4-fluorophenyl)thiazol-4-yl)indolin-2-one]		0.093		
O=C1Cc2cc(-c3csc(-c4ccc(F)cc4F)n3)c(Cl)cc2N1 [Compound 29, 6-chloro-5-(2-(2,4-difluorophenyl)thiazol-4-yl)indolin-2-one]		1.9		
O=c1[nH]c2ccc(-c3cccc(-c4ccc(F)cc4)n3)cc2o1 [Compound 30, 6-(6-(4-fluorophenyl)pyridin-2-yl)benzo[d]oxazol-2(3H)-one]	2.7	0.28	0.035	
Cc1cc(F)ccc1-c1cccc(-c2ccc3[nH]c(=O)oc3c2)n1 [Compound 31, 6-(6-(4-fluoro-2-methylphenyl)pyridin-2-yl)benzo[d]oxazol-2(3H)-one]		> 10		

Reference: US9550764B2, “Fused heterocyclic compounds and their use” (The Institute of Cancer Research: Royal Cancer Hospital, priority 2012, dated 2017)
